Measurements published in US7195879B2, “Method for identifying modulators of NAv ion channels” (priority 2002, dated 2007).
Values joined by “and” are separate entries in the source; they are usually repeats but may differ in a detail not shown here. Identical values can stand only once. “Also recorded” adds a separate entry of the source. Like-named read-outs stand apart in the source and are kept apart here.

How the values were obtained:
[1] = test system: IMR-32 cells grown in the presence of RA (fast transient inward currents); experiment: Whole cell voltage clamp of inward currents, IMR-32 cells grown in RA; type: cell-based, human
Description: The endogenous voltage gated Na currents expressed in IMR-32 cells grown in the presence or absence of 1 μM RA were measured using standard whole cell voltage clamp techniques (Hamill et al. (1981). The whole cell patch clamp technique was used to record voltage-activated currents from IMR-32 cells maintained for two or more days on 12 mm glass coverslips in the presence or absence of RA (1 μM). Cells were visualized using a Nikon Diaphot 300 with DIC Nomarski optics. The standard physiological saline (1 Ca tyrodes (“Tyrodes”) contains: 130 mM NaCl, 4 mM KCl, 1 mM CaCl2, 1.2 mM MgCl2, and 10 mM hemi-Na-HEPES (pH 7.3, 295–300 mOsm as measured using a Wescor 5500 vapor-pressure (Wescor, Inc., Logan, Utah)). Recording electrodes are fabricated from borosilicate capillary tubing (R6; Garner Glass, Claremont, Calif.), the tips are coated with dental periphery wax (Miles Laboratories, South Bend, Ind.), and have resistances of 1 to 2 MΩ when containing an intracellular saline designed to block outward currents: 140 mM CsCl, 0.483 mM CaCl2, 2 mM MgCl2, 10 mM HEPES free acid and 1 mM K4-BAPTA (100 nM free Ca^+2); pH 7.4, with dextrose added to achieve 290 mOsm). Current and voltage signals are detected and filtered at 2 kHz with an Axopatch 1D patch-clamp amplifier (Axon Instruments, Foster City, Calif.), digitally recorded with a DigiData 1200B laboratory interface (Axon Instruments) and PC compatible computer system and stored on magnetic disk for off-line analysis. Data acquisition and analysis are performed with PClamp software.
The total membrane capacitance (Cm) was determined as the difference between the maximum current after a 30 mV hyperpolarizing voltage ramp from −100 mV (generated at a rate of 10 mV/ms) and the steady state current at the final potential (−130 mV) (Dubin et al. (1999)).
Families of voltage-gated inward currents were obtained using a standard P/−4 protocol from −100 mV. Depolarizing voltage steps in increments of 10 mV were applied from a holding potential of −100 mV. Steady state inactivation was elicited by measuring the peak current at 0 mV after a 500 msec pre-pulse voltage between −140 and −20 mV in increments of 10 mV.

Nav1.3 = Nav1.3 (Homo sapiens, UniProt Q9NY46); type: cell-based
[2] = test system: IMR-32 cells grown in the absence of RA (inward currents); type: cell-based, human
Nav = type: cell-based, human
Nav1.7 = Nav1.7 (Homo sapiens, UniProt Q15858)
[3] = test system: TTX-R inward current (calcium currents); experiment: Whole cell voltage clamp, block of TTX-R inward current in IMR-32 cells; type: cell-based, human; conditions: 5 μM

Chain of Nav1.3 (Q9NY46 whole entry, looked up): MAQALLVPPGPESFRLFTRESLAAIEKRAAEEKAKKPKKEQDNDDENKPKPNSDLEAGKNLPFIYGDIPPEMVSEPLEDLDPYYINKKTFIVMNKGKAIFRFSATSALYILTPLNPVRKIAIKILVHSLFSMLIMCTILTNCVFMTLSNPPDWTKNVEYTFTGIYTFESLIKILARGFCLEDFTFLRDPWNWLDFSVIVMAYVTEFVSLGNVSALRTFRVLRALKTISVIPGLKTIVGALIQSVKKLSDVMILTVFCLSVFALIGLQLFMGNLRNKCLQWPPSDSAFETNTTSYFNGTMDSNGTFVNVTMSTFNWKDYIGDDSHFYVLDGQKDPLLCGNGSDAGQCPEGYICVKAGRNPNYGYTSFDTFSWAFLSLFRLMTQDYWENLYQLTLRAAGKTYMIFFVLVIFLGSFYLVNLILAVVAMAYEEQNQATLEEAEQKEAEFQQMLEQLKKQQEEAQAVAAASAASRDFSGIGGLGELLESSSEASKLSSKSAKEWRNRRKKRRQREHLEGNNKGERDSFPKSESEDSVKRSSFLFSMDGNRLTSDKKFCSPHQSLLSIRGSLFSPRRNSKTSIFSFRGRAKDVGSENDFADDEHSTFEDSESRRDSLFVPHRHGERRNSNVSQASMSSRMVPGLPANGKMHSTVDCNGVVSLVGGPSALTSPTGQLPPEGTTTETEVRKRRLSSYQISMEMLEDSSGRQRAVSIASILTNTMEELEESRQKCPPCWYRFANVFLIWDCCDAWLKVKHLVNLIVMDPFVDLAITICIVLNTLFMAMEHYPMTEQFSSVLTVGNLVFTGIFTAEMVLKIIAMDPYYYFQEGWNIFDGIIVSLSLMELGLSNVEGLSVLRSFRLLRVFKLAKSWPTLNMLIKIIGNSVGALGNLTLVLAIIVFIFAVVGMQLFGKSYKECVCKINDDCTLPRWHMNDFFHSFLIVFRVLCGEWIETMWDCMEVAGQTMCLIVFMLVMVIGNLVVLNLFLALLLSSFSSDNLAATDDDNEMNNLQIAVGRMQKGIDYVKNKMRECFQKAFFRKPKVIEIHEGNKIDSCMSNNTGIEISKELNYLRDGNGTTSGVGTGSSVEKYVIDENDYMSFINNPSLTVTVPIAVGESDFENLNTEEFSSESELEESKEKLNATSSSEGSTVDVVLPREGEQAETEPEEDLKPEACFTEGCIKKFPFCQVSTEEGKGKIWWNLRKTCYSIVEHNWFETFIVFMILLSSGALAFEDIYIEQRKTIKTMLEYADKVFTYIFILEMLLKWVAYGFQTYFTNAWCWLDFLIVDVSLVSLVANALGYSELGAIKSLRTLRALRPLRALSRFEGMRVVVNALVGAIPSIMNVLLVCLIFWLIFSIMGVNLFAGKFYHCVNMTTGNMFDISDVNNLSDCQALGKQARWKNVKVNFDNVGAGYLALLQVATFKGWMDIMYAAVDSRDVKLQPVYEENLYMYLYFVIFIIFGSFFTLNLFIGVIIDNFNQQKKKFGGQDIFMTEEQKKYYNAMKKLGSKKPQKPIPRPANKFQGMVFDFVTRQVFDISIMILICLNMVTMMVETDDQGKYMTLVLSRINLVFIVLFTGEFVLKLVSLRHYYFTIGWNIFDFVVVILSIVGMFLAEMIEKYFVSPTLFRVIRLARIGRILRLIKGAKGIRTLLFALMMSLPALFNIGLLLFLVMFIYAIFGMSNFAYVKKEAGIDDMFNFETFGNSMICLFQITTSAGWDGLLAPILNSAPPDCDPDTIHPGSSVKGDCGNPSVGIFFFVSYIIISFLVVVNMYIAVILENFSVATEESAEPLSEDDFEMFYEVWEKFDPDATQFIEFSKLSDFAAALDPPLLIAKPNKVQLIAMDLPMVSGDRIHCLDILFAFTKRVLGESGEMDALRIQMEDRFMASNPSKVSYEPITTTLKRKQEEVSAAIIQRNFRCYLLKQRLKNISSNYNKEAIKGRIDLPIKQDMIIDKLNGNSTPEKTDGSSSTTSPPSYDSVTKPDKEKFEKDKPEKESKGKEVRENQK
Chain of Nav1.7 (Q15858 whole entry, looked up): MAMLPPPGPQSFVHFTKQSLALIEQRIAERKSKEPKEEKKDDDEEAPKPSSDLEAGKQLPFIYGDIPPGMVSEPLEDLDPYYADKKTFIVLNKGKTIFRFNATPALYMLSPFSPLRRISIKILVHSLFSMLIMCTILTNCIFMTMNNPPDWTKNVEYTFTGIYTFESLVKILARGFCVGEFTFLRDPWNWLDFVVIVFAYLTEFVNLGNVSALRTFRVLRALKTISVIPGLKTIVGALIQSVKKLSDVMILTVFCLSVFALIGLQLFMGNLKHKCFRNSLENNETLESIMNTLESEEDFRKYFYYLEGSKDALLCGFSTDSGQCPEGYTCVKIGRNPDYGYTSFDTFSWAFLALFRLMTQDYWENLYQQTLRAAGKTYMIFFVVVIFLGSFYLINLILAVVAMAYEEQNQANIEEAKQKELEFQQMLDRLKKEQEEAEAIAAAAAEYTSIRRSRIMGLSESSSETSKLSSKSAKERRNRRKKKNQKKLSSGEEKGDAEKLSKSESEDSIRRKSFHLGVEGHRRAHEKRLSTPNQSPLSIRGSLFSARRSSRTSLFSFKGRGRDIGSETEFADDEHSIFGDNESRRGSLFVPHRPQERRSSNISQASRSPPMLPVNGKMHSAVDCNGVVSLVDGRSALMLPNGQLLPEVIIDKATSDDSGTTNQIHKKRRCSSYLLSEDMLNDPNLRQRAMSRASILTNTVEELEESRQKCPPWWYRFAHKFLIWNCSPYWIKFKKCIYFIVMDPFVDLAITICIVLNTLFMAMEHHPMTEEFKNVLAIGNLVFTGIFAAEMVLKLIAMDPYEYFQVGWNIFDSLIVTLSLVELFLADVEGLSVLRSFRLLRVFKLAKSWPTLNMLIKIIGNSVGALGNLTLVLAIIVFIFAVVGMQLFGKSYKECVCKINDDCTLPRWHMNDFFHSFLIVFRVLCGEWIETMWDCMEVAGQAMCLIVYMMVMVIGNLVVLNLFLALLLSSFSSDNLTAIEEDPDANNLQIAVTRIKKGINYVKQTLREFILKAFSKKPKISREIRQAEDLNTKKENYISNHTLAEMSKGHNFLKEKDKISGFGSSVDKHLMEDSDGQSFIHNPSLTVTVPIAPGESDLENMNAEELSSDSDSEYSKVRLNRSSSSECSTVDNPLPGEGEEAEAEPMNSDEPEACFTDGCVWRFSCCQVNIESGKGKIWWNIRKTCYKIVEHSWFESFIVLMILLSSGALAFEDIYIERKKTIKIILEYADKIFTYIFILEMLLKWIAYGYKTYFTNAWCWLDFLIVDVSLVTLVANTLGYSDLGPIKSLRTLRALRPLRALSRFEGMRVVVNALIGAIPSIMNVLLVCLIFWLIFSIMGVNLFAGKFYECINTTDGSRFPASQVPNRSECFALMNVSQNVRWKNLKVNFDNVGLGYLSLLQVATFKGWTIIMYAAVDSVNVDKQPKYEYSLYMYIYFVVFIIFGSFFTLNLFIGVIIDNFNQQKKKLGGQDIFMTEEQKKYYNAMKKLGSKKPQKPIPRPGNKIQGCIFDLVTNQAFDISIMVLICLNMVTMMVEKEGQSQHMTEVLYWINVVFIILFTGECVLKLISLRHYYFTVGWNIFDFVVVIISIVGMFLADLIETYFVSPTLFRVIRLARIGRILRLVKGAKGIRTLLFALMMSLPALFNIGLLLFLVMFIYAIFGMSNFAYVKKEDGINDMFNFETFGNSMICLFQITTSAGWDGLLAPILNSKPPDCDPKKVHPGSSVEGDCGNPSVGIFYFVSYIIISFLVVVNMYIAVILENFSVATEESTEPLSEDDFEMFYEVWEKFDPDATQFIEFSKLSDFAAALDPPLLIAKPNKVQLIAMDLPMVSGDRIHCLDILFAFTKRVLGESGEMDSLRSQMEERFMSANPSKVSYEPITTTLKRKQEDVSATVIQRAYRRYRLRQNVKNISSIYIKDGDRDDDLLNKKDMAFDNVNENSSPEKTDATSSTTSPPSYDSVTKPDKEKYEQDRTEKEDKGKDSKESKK

## CC1=C(/C=C/C(C)=C\C=C\C(C)=C\C(=O)O)C(C)(C)CCC1 [RA, 9-cis RA]
[1]; cells grown for more than two weeks in RA, tested in Tyrodes, n=24, vs -43.3 without RA, p<0.02
  peak inward currents: −75.3+/−10.6 pA/pF

## NC1=N[C@H](O)[C@H]2[C@H]3O[C@]4(O)O[C@@H]([C@@H](O)[C@@]2(N1)[C@@H]4O)[C@]3(O)CO [TTX, tetrodotoxin]
Nav1.3
  block of veratridine-induced depolarization / fluorescence signal: completely suppressed; also recorded: completely blocked; also recorded: nearly completely blocks
  proportion of the veratridine-induced response blocked: 90% and 88% and 89%
  steepness of the dose response relationship: 0.76 and 0.89 and 0.79
Nav1.3; read-out: IC50, block of veratridine-stimulated sodium influx
  IC50: 3.3 nM
Nav1.3; read-out: concentration to half block the veratridine-induced increase in fluorescence (IC50)
  IC50: 2.8 nM
[1]
  TTX-S component of inward currents, proportion of total current: 36+/−7%
  block of inward currents: 92%
  effect on inward currents: little effect
[2]
  TTX-S component of inward currents, proportion of total current: 17+/−6%
  block of inward currents: only partially blocked
Nav
  effect on FRET signal: dose dependent decreases
Nav1.7
  block of veratridine induced signal: nearly completely blocks
  proportion of the veratridine-induced response blocked: 82% and 80%
  steepness of the dose response relationship: 1.0 and 1.5

## COCC(=O)O[C@]1(CCN(C)CCCc2nc3ccccc3[nH]2)CCc2cc(F)ccc2[C@@H]1C(C)C [mibefradil]
[3]
  block of the TTX-R current: in part
